Laboratory results from patent US20070167492A1, “Molluscicidal agents” (priority 2003, published 2007).

What was measured:
[1] = tested on: Deroceras reticulatum (grey field slug); experiment: Example 1: pot test, treated winter wheat seed with 5 adult slugs per pot, 14 days; format: in vivo
Procedure: (§1) Winter wheat (Kampa race; thousand grain weight of 51 grams) was used in an experiment to test the efficacy of the compositions of the present inventions in relation to known molluscicidal compounds. The seeds were disinfected for soil and germ moulds with 2 ml of Beret Gold (comprising 25 g/l of the fungicide fludioxonil) per kg of seed.
(§2) Sepiret® was added to all dry disinfections, and is the coating that was added to all agents of which the formulation was not suitable for coating.
The seeds were sown in earthenware pots with an internal diameter of 20 cm and a height of 18 cm, filled with 7 cm of potting soil (Trio BV, Weesp, The Netherlands) and with a top 2 cm of white quartz sand. A total of 40 seeds was placed in each pot, in a pattern of concentric circles on top of the quartz sand, the germ facing upwards. To each pot a total of 5 adult specimens of the test slug Deroceras reticulatum (grey field slug) were added. The pots were incubated at ±15° C. with a relative humidity of ±90% and light regime of ±12 hours light/12 hours dark, without artificial lighting. The pots were not irrigated overhead. In total, 4 parallel tests were performed for each test.
Following the addition of the slugs, the number of damaged seeds was counted after 2, 3, 7, 10 and 14 days. The number of plants present (germinated and not eaten or damaged by the slugs) was determined 3, 7, 10 and 14 days after the start of the test. […] The number of dead slugs was counted 2, 3, 7, 10 and 14 days after the start of the test (but not removed). Finally, on days 3, 7, 10 and 14 after the start of the test, the number fecal pellets was counted.
The data were statistically analysed by using F-tests (α=0.05) and pair-wise Student-tests.

[2] = tested on: Winter wheat (Kampa race) seeds; experiment: Seed germination test of treated winter wheat seeds (rolled in paper); format: in vivo; conditions: 3x50 seeds, 6 days at 22° C.
Procedure: as §1, §2
Table 2 provides an overview of the amounts of diluent water and Sepiret® used for treating the wheat seeds. Table 2 further provides the quality of the coating and the percentages of germinating seeds in a seed germination test. In this test, the percentage of germination of 3×50 seeds, rolled in paper, was determined after 6 days at 22° C. (continuously) and a 16 hours light regime.

[3] = 2 ml formulated per kg seed, 2 days after sowing
[4] = 2 ml formulated per kg seed, 3 days after sowing
[5] = 2 ml formulated per kg seed, 7 days after sowing
[6] = 2 ml formulated per kg seed, 10 days after sowing
[7] = 2 ml formulated per kg seed, 14 days after sowing
[8] = 4 ml formulated per kg seed, 2 days after sowing
[9] = 4 ml formulated per kg seed, 3 days after sowing
[10] = 4 ml formulated per kg seed, 7 days after sowing
[11] = 4 ml formulated per kg seed, 10 days after sowing
[12] = 4 ml formulated per kg seed, 14 days after sowing
[13] = 8 ml formulated per kg seed, 2 days after sowing
[14] = 8 ml formulated per kg seed, 3 days after sowing
[15] = 8 ml formulated per kg seed, 7 days after sowing
[16] = 8 ml formulated per kg seed, 10 days after sowing
[17] = 8 ml formulated per kg seed, 14 days after sowing
[18] = 23 ml formulated per kg seed, 2 days after sowing
[19] = 23 ml formulated per kg seed, 3 days after sowing
[20] = 23 ml formulated per kg seed, 7 days after sowing
[21] = 23 ml formulated per kg seed, 10 days after sowing
[22] = 23 ml formulated per kg seed, 14 days after sowing

For `CN1COCN(Cc2cnc(Cl)s2)/C1=N\[N+](=O)[O-]` [thiamethoxam], the “number of utilizable plants after 14 days” value (“number of utilizable plants” below) ([1]; 2 ml formulated per kg seed) was 0.3, the “percentage of damaged seeds after 14 days” value (“percentage of damaged seeds” below) ([1]; 2 ml formulated per kg seed) was 97% and the “Mean number of damaged seeds per pot” value [1, 3] was 5.0. For the same molecule, the “Mean number of dead slugs per pot” value [1, 3] was 0, the “Mean number fecal pellets per pot” value [1, 4] was 42 and the “Mean number of damaged seeds per pot” value [1, 4] was 18.0. The “Mean number of dead slugs per pot” value [1, 4] was 0, the “Mean number of plants present per pot” value [1, 4] was 7.3 and the “Mean number fecal pellets per pot” value [1, 5] was 107. For the same molecule, the “Mean number of damaged seeds per pot” value [1, 5] was 37.3, the “Mean number of dead slugs per pot” value [1, 5] was 0 and the “Mean number of plants present per pot” value [1, 5] was 0.3. For the same molecule, the “Mean number fecal pellets per pot” value [1, 6] was 158, the “Mean number of damaged seeds per pot” value [1, 6] was 39.0 and the “Mean number of dead slugs per pot” value [1, 6] was 0. The “Mean number of plants present per pot” value [1, 6] was 0.3, the “Mean number fecal pellets per pot” value [1, 7] was 144 and the “Mean number of damaged seeds per pot” value [1, 7] was 38.8. For the same molecule, the “Mean number of dead slugs per pot” value [1, 7] was 0, the “Mean number of plants present per pot” value [1, 7] was 0.3 and the “number of utilizable plants” value ([1]; 4 ml formulated per kg seed) was 0. For the same molecule, the “percentage of damaged seeds” value ([1]; 4 ml formulated per kg seed) was 98%, the “Mean number of damaged seeds per pot” value [1, 8] was 1.8 and the “Mean number of dead slugs per pot” value [1, 8] was 0. The “Mean number fecal pellets per pot” value [1, 9] was 30, the “Mean number of damaged seeds per pot” value [1, 9] was 15.5 and the “Mean number of dead slugs per pot” value [1, 9] was 0. For the same molecule, the “Mean number of plants present per pot” value [1, 9] was 6.0, the “Mean number fecal pellets per pot” value [1, 10] was 115 and the “Mean number of damaged seeds per pot” value [1, 10] was 37.0. The “Mean number of dead slugs per pot” value [1, 10] was 0, the “Mean number of plants present per pot” value [1, 10] was 0.3 and the “Mean number fecal pellets per pot” value [1, 11] was 126. The “Mean number of damaged seeds per pot” value [1, 11] was 36.5, the “Mean number of dead slugs per pot” value [1, 11] was 0.3 and the “Mean number of plants present per pot” value [1, 11] was 0. For the same molecule, the “Mean number fecal pellets per pot” value [1, 12] was 133, the “Mean number of damaged seeds per pot” value [1, 12] was 39.0 and the “Mean number of dead slugs per pot” value [1, 12] was 0.5. For the same molecule, the “Mean number of plants present per pot” value [1, 12] was 0, the “number of utilizable plants” value ([1]; 8 ml formulated per kg seed) was 3.8 and the “percentage of damaged seeds” value ([1]; 8 ml formulated per kg seed) was 84%. The “Mean number of damaged seeds per pot” value [1, 13] was 2.0, the “Mean number of dead slugs per pot” value [1, 13] was 0 and the “Mean number fecal pellets per pot” value [1, 14] was 33. The “Mean number of damaged seeds per pot” value [1, 14] was 10.3, the “Mean number of dead slugs per pot” value [1, 14] was 0 and the “Mean number of plants present per pot” value [1, 14] was 5.5. The “Mean number fecal pellets per pot” value [1, 15] was 85, the “Mean number of damaged seeds per pot” value [1, 15] was 29.8 and the “Mean number of dead slugs per pot” value [1, 15] was 0. For the same molecule, the “Mean number of plants present per pot” value [1, 15] was 5.3, the “Mean number fecal pellets per pot” value [1, 16] was 108 and the “Mean number of damaged seeds per pot” value [1, 16] was 30.8. The “Mean number of dead slugs per pot” value [1, 16] was 0, the “Mean number of plants present per pot” value [1, 16] was 5.5 and the “Mean number fecal pellets per pot” value [1, 17] was 112. For the same molecule, the “Mean number of damaged seeds per pot” value [1, 17] was 33.8, the “Mean number of dead slugs per pot” value [1, 17] was 0.3 and the “Mean number of plants present per pot” value [1, 17] was 5.5. For the same molecule, the “number of utilizable plants” value ([1]; 23 ml formulated per kg seed) was 2.5, the “percentage of damaged seeds” value ([1]; 23 ml formulated per kg seed) was 79% and the “Mean number of damaged seeds per pot” value [1, 18] was 0.5. The “Mean number of dead slugs per pot” value [1, 18] was 0, the “Mean number fecal pellets per pot” value [1, 19] was 20 and the “Mean number of damaged seeds per pot” value [1, 19] was 8.5. For the same molecule, the “Mean number of dead slugs per pot” value [1, 19] was 0.3, the “Mean number of plants present per pot” value [1, 19] was 6.8 and the “Mean number fecal pellets per pot” value [1, 20] was 91. The “Mean number of damaged seeds per pot” value [1, 20] was 29.8, the “Mean number of dead slugs per pot” value [1, 20] was 0.3 and the “Mean number of plants present per pot” value [1, 20] was 6.3. The “Mean number fecal pellets per pot” value [1, 21] was 122, the “Mean number of damaged seeds per pot” value [1, 21] was 30.0 and the “Mean number of dead slugs per pot” value [1, 21] was 0.8. The “Mean number of plants present per pot” value [1, 21] was 7.0, the “Mean number fecal pellets per pot” value [1, 22] was 131 and the “Mean number of damaged seeds per pot” value [1, 22] was 31.5. For the same molecule, the “Mean number of dead slugs per pot” value [1, 22] was 0.8, the “Mean number of plants present per pot” value [1, 22] was 5.8 and the “differences in the number of damaged seeds” value ([1]; Example 1, dosages tested) was “did not result in significant differences”. The “protection / slug controlling effect (conclusion)” value ([1]; Example 1, winter wheat seed treatment, dosages tested) was “no sufficient protection to the plants”, the Percentage germinated ([2]; 2 ml formulated per kg seed) was 88% and the Percentage germinated ([2]; 4 ml formulated per kg seed) was 78%. The Percentage germinated ([2]; 8 ml formulated per kg seed) was 61% and the Percentage germinated ([2]; 23 ml formulated per kg seed) was 73%.
